One test has as its system green peach aphid (Myzus persicae). Kind of test: Myzus test (MYZUPE), sprayed aubergine plants. In kind it is in vivo. As to conditions: application rate of 500 ppm, spray on aubergine plants, read-out: effect in % (aphids killed). On the procedure:
Solvent: 3 parts by weight of dimethylformamide Emulsifier: 1 part by weight of polyoxyethylenealkyl phenyl ether
An appropriate preparation of active ingredient is prepared by mixing 1 part by weight of active ingredient with the stated amount of solvent and emulsifier and diluting the concentrate with water to the desired concentration.
Aubergine plants (Solanum melongena) infested by all stages of the green peach aphid (Myzus persicae) are sprayed with a preparation of active ingredient at the desired concentration.
After the desired time, the effect in % is determined; here, 100% means that all of the aphids have been killed. Conversely, 0% means that no aphids have been killed.
Consider `O=C(Nc1cccnc1)c1ccc(Cn2nc(C(F)(F)F)cc2C(F)(F)F)nc1` [I-9], for which the pest or weed control at 500 ppm is at least 80%. Consider `C#CCN(C(=O)c1ccc(Oc2ccc(OC(F)(F)F)cc2)nc1)c1cccnc1` [I-135], for which the pest or weed control at 500 ppm is at least 80%. Take `CN(C(=O)c1ccc(Oc2ccc(-n3cncn3)cc2)nc1)c1cccnc1` [I-128]: the pest or weed control at 500 ppm was at least 80%. With `CN(C(=O)c1ccc(Oc2ccccc2Cl)nc1)c1cccnc1` [I-98], the pest or weed control at 500 ppm is at least 80%. Consider `CCN(C(=O)c1ccc(Sc2ncccn2)nc1)c1cccnc1` [I-196], for which the pest or weed control at 500 ppm is at least 80%. Still for that read-out and setting: the result for `CCN(C(=O)c1ccc(Oc2nc(C)cc(C)n2)cc1)c1cccnc1` [I-183] reads at least 80%; that for `CCN(C(=O)c1cccc(OCc2nc(OC)cc(OC)n2)c1)c1cccnc1` [I-208], at least 80%. Still for that read-out and setting: the result for `O=C(Nc1cccnc1)c1ccc(Cn2nc(C(F)(F)F)nc2C(F)(F)F)nc1` [I-6] reads at least 80%; that for `CN(CCC#N)C(=O)c1ccc(C(=O)Nc2cccnc2)cc1` [I-244], at least 80%.

Take `O=C(Nc1cccnc1)c1ccc(Cn2cnc(C(F)(F)C(F)(F)F)n2)cc1` [I-17]: the pest or weed control at 500 ppm is at least 80%. On the same count and under the same terms, the result for `CN(C(=O)c1ccc(Oc2ccc3cccnc3c2)nc1)c1cccnc1` [I-141] reads at least 80%; that for `CSc1ccc(C(=O)N(C)c2cccnc2)cn1` [I-110], at least 80%; that for `CN(C)C(=O)c1ccc(C(=O)Nc2cccnc2)cc1` [I-41], at least 80%. The same measure, in the same setting: the result for `Cc1nc(Sc2ccc(C(=O)Nc3cccnc3)cn2)nc(C)c1C` [I-218] reads at least 80%; that for `CN(C(=O)c1ccc(Oc2ccc(Cl)cc2Cl)nc1)c1cccnc1` [I-114], at least 80%; that for `Cc1cc(C)nc(Sc2ccc(C(=O)N(Cc3ccc(C#N)cc3)c3cccnc3)cn2)n1` [I-228], at least 80%.

For the compound `CN(C(=O)c1ccc(Oc2cccc(Cl)c2)nc1)c1cccnc1` [I-99], the pest or weed control at 500 ppm was at least 80%.

Consider `Cc1ccc(Oc2ccc(C(=O)Nc3cccnc3)cc2)cn1` [I-103], for which the pest or weed control at 500 ppm was at least 80%. On the same count and under the same terms, the result for `CCN(C(=O)c1ccc(Oc2ccc(S(C)(=O)=O)cc2)nc1)c1cccnc1` [I-154] reads at least 80%. The same measure, in the same setting: the result for `CCN(C(=O)c1ccc(C(=O)OC)cc1)c1cccnc1` [I-241] reads at least 80%; that for `CCN(C(=O)c1ccc(Oc2nc(OC)cc(OC)n2)cc1)c1cccnc1` [I-172], at least 80%. As for `N#Cc1ccc(Oc2ccc(C(=O)Nc3cccnc3)cn2)cc1` [I-164], the pest or weed control at 500 ppm was at least 80%. Still for that read-out and setting: the result for `O=C(Nc1cccnc1)c1ccc(N2CCCCC2)nc1` [I-205] reads at least 80%; that for `CN(C(=O)c1ccc(Cn2ccc(C(F)(F)F)n2)cc1)c1cccnc1` [I-27, N-Methyl-N-(pyridin-3-yl)-4-{[3-(trifluoromethyl)-1H-pyrazol-1-yl]methyl}benzenecarboxamide], at least 80%. As for `CN(C(=O)c1ccc(NC(=O)C(F)(F)F)cc1)c1cccnc1` [I-52], the pest or weed control at 500 ppm was at least 80%.

As for `CCN(C(=O)c1ccc(Sc2nc(OC)cc(OC)n2)nc1)c1cccnc1` [I-175], the pest or weed control at 500 ppm is at least 80%. On the same count and under the same terms, the result for `CSc1ccc(C(=O)Nc2cccnc2)cc1` [I-36] reads at least 80%. On to `CN(C(=O)c1ccc(Cn2cncn2)cc1)c1cccnc1` [I-22], for which the pest or weed control at 500 ppm is at least 80%. On to `Cc1cccc(Oc2ccc(C(=O)N(C)c3cccnc3)cn2)c1` [I-97], for which the pest or weed control at 500 ppm is at least 80%. On to `CC(C)O/N=C/c1ccc(C(=O)N(C)c2cccnc2)cc1` [I-234], for which the pest or weed control at 500 ppm is at least 80%. Consider `Cc1cc(C)nc(Sc2ccc(C(=O)N(C)c3cccnc3)cn2)n1` [I-104], for which the pest or weed control at 500 ppm was at least 80%. Same read-out and setting: the result for `CN(C(=O)c1cnc(Oc2ccc(S(C)(=O)=O)cc2)c(Cl)c1)c1cccnc1` [I-148] reads at least 80%. Still for that read-out and setting: the result for `CCCSc1ccc(C(=O)Nc2cccnc2)cc1` [I-68] reads at least 80%. The same measure, in the same setting: the result for `CN(C(=O)c1ccc(Cn2nc(C(F)(F)F)nc2C(F)(F)F)nc1)c1cccnc1` [I-50] reads at least 80%. Regarding `COc1ccc(Sc2ccc(C(=O)N(C)c3cccnc3)cn2)cc1` [I-106], the pest or weed control at 500 ppm was at least 80%.

For `O=C(Nc1cccnc1)c1ccc(C(=O)N2CCCC2)cc1` [I-42], the pest or weed control at 500 ppm is at least 80%.

`CCN(C(=O)c1ccc(Oc2ccc([N+](=O)[O-])cc2)nc1)c1cccnc1` [I-163]: the pest or weed control at 500 ppm was at least 80%. Turning to `CN(C(=O)c1cccc(Cn2cncn2)c1)c1cccnc1` [I-15], the pest or weed control at 500 ppm was at least 80%.

As for `Cc1cc(C)nc(Sc2ccc(C(=O)Nc3cccnc3)cn2)n1` [I-159], the pest or weed control at 500 ppm is at least 80%. Consider `CN(C(=O)c1cnc(Oc2ccc(C(F)(F)F)cc2)c(Cl)c1)c1cccnc1` [I-146], for which the pest or weed control at 500 ppm is at least 80%.

In the case of `CS(=O)(=O)c1ccc(Oc2ccc(C(=O)Nc3cccnc3)cn2)cc1` [I-217], the pest or weed control at 500 ppm is at least 80%. Still for that read-out and setting: the result for `CCCSCc1ccc(C(=O)Nc2cccnc2)cc1` [I-39] reads at least 80%; that for `C#CCN(C(=O)c1ccc(Sc2nc(C)cc(C)n2)nc1)c1cccnc1` [I-225], at least 80%; that for `COc1cc(OC)nc(Sc2ccc(C(=O)N(C)c3cccnc3)cc2)n1` [I-177], at least 80%. On the same count and under the same terms, the result for `O=C(Nc1cccnc1)c1ccc(Oc2ccc(Br)cc2)nc1` [I-84] reads at least 80%; that for `COc1ccc(C(=O)N(C)c2cccnc2)cn1` [I-155], at least 80%; that for `CCN(C(=O)c1ccc(SC)c(F)c1)c1cccnc1` [I-67], at least 80%. With `Cc1cc(C)nc(Oc2ccc(C(=O)N(C)c3cccnc3)cc2)n1` [I-182], the pest or weed control at 500 ppm is at least 80%.

For `CCN(C(=O)c1ccc(Sc2nccc(C)n2)nc1)c1cccnc1` [I-197], the pest or weed control at 500 ppm is at least 80%. Consider `CN(C(=O)c1cccc(Cn2cnc(C(F)(F)F)n2)c1)c1cccnc1` [I-12], for which the pest or weed control at 500 ppm is at least 80%.

Take `CCN(CC)C(=O)c1ccc(C(=O)N(CC)c2cccnc2)cc1` [I-251]: the pest or weed control at 500 ppm was at least 80%. Still for that read-out and setting: the result for `COC(=O)c1cncc(Oc2ccc(C(=O)Nc3cccnc3)cn2)c1` [I-89] reads at least 80%.

`CC(=O)N(C)c1ccc(C(=O)N(C)c2cccnc2)cc1` [I-253]: the pest or weed control at 500 ppm is at least 80%.

Take `CN(C(=O)c1ccc(Sc2ccc(C(F)(F)F)cn2)nc1)c1cccnc1` [I-119]: the pest or weed control at 500 ppm is at least 80%.

`CN(C(=O)c1ccc(Oc2ccc(Cl)cc2)nc1)c1cccnc1` [I-91]: the pest or weed control at 500 ppm is at least 80%.

The test is the same for the next values; noted with them: read-out: effect in % (aphids killed).
For `CCN(C(=O)c1ccc(N(C)C(=O)C(F)(F)C(F)(F)C(F)(F)F)cc1)c1cccnc1` [I-248], the pest or weed control at 500 ppm is at least 80%.

On to `CN(C(=O)c1ccc(C(F)(F)C(F)(F)C(F)(F)F)cc1)c1cccnc1` [I-47], for which the pest or weed control at 500 ppm was at least 80%. As for `O=C(Nc1cccnc1)c1ccc(C(F)(F)C(F)(F)C(F)(F)F)nc1` [I-30], the pest or weed control at 500 ppm was at least 80%.

For `CN(C(=O)c1ccc(C(F)(F)C(F)(F)C(F)(F)F)nc1)c1cccnc1` [I-48], the pest or weed control at 500 ppm is at least 80%.

The values above are taken from patent US20100305124A1, “Acylated Aminopyridine and Aminopyridazine Insecticides” (BAYER CROPSCIENCE AG, priority 2009, published 2010).
